Data on one compound can be found in US20240139026A1, “Ophthalmic Lenses And Methods For Correcting, Slowing, Reducing, And/Or Controlling The Progression Of Myopia In Conjunction With Use Of Atropine Or Related Compounds” (Brien Holden Vision Institute Limited, priority 2020, published 2024).

Data set [1] deals with myopic eye of an individual. The experiment in a line: Spherical aberration of combined spectacle lens and eye system with Atropine-enlarged pupil. Type of data set: in vivo. The following applies: -2.00 D myope; pupillary diameter increase from about 3 mm to about 6 mm with use of Atropine. From the text: FIG. 1A illustrates a schematic plot of pupil diameters resulting from use of Atropine, a widely used muscarinic receptor antagonist and a pharmaceutical agent for myopia therapy. […] Considering FIG. 1A, it is observed that use of 0.01% Atropine which to date is the lowest concentration used for treatment of myopia in individuals, increases the photopic pupillary diameter by approximately 1 mm. Increasing the concentration to anywhere from 0.025% to 0.1% Atropine, increases the photopic pupil size from about 2 mm to about 3 mm. With the highest concentration of 0.5% Atropine, the increase in photopic pupil size was largest and at about 3 mm. An increase in pupil size increases aberrations of the eye. […] FIG. 1B illustrates the increase in higher order aberrations from 3rd to 6th order as determined by aberrometry for the myopic eye of an individual who has a distance refractive error of approximately −2.00 D. It is observed that there is a significant increase in aberrations with a larger pupil. An increase in the pupil size may result in a functional decrement in visual performance and one or more unwanted effects such as poorer visual performance, reduced contrast, blurred vision, increased glare and increased photophobia (sensitivity to light). […]

Data set [2] deals with amplitude of accommodation. The conditions noted are these: concentrations greater than 0.1% Atropine; children aged 6-12 years; cited from earlier work.
Data set [3] deals with myopia progression. The following applies: cited from earlier work.

Regarding `CN1[C@@H]2CC[C@H]1C[C@@H](OC(=O)C(CO)c1ccccc1)C2` (stereo partly shown) [Atropine], the “effective increase of the spherical aberration of the combined spectacle lens and eye system” value in data set [1] is given as “about +0.50 D”. For the same compound, in data set [2], the “reduction of amplitude of accommodation” value is reported as “reduce the amplitude of accommodation by more than half”. In data set [3] (Atropine eye drops 0.01% to 1.0%), the “concentration dependence of efficacy” value was “the higher the concentration, the greater the efficacy”. The “efficacy in slowing myopia progression” value in data set [3] (used topically) was “demonstrated a level of efficacy in slowing myopia progression”.
